{"source": "ChEMBL document CHEMBL1130808", "about": "“Prediction of the GTPase activities by using the semiempirical molecular orbital theory” (Bioorg Med Chem Lett, 1998)", "data": [{"assay": "Effect on rate of GTP hydrolysis in the GTP binding protein ras p21", "values": [{"smiles": "CNC[C@H](N)C(=O)O", "krel": 1}, {"smiles": "CCC[C@H](N)C(=O)O", "krel": 0.98}, {"smiles": "CC(C)[C@H](N)C(=O)O", "krel": 1.02}, {"smiles": "C[C@H](N)C(=O)O", "krel": 1.04}]}]}
